9 compounds from PubChem BioAssay (NCI) can be followed below.

Some test systems named below: HS 578T breast; HL-60(TB) leukemia; A549 NSCLC; NCI/ADR-RES ovarian; BT-549 breast; OVCAR-4 ovarian; HCT-15 colon; OVCAR-8 ovarian; RXF 393 renal; HOP-92 NSCLC.
Assay in all cases: inhibition of tumour cell growth, NCI panel, 48 h

Structures are written as SMILES. Values joined by “and” are separate entries in the source; they are usually repeats but may differ in a detail not shown here. Equal entries are not always repeated.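 96-well plates; 48 h exposure; 5 concentrations. Endpoints by linear interpolation between flanking doses. Not reached: highest tested concentration assigned. At the GI50, growth is halved. TGI: concentration producing complete growth inhibition.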

Turning to `COc1ccccc1NC(=O)CC(=O)n1nc(C)c(N=Nc2ccccc2Cl)c1C`, the TGI in the experiment on HS 578T breast, with HL-60(TB) leukemia, in the experiment on A549 NSCLC, with NCI/ADR-RES ovarian, in the experiment with BT-549 breast and with OVCAR-4 ovarian was more than 100 µM each time. Further, the TGI with HCT-15 colon, with OVCAR-8 ovarian, in the experiment with RXF 393 renal and in the experiment with HOP-92 NSCLC was more than 100 µM throughout.
With `Cc1ccc(-c2nc(/C=N/Nc3cc(C)nc4ccc(Br)cc34)c(C)o2)cc1`, the GI50 is 17 µM in the experiment with HS 578T breast; 1.9 µM with HL-60(TB) leukemia; 1.82 µM with A549 NSCLC; 1.99 µM with NCI/ADR-RES ovarian; 14 µM in the experiment on BT-549 breast; 1.89 µM in the experiment on OVCAR-4 ovarian. Further, the GI50 in the experiment on HCT-15 colon was 1.86 µM; in the experiment on OVCAR-8 ovarian, 2.08 µM; with RXF 393 renal it was 1.65 µM; with HOP-92 NSCLC, 1.5 µM. Further, the TGI amounted to 38.6 µM in the experiment on HS 578T breast; 4.05 µM in the experiment on HL-60(TB) leukemia; 3.52 µM in the experiment on A549 NSCLC; 4.46 µM in the experiment with NCI/ADR-RES ovarian; 29.3 µM in the experiment on BT-549 breast; 3.49 µM with OVCAR-4 ovarian. The TGI with HCT-15 colon is 3.64 µM; in the experiment on OVCAR-8 ovarian it was 4.4 µM; with RXF 393 renal, 3.22 µM; with HOP-92 NSCLC it was 2.98 µM.
Turning to `COc1c(C)c(OC)c(C(=O)CC(C)C)c(OC)c1C`, the TGI in the experiment on HS 578T breast is more than 100 µM; in the experiment on HL-60(TB) leukemia it was 50.5 µM; with A549 NSCLC, more than 100 µM; in the experiment on NCI/ADR-RES ovarian, more than 100 µM; in the experiment on BT-549 breast, more than 100 µM; with OVCAR-4 ovarian, more than 100 µM. In addition, the TGI in the experiment with HCT-15 colon, in the experiment on OVCAR-8 ovarian, in the experiment on RXF 393 renal and in the experiment on HOP-92 NSCLC was more than 100 µM throughout.
On to `CCc1cccc(NC(=O)Nc2ccc(Oc3ccc4nc(NC(=O)OC)[nH]c4c3)cc2)c1`, for which the GI50 with HS 578T breast is 1.41 µM; in the experiment on HL-60(TB) leukemia, 2.79 µM; with A549 NSCLC, 5.35 µM; with NCI/ADR-RES ovarian, 10.5 µM; in the experiment on BT-549 breast, 8.24 µM; with OVCAR-4 ovarian, 4.45 µM. Also, the GI50 in the experiment with HCT-15 colon was 2.93 µM; with OVCAR-8 ovarian, 5.79 µM; in the experiment on RXF 393 renal, 2.05 µM; with HOP-92 NSCLC, 2.33 µM. Moreover, the TGI with HS 578T breast was 19.2 µM; in the experiment with HL-60(TB) leukemia, more than 16.4 µM; with A549 NSCLC, more than 15.3 µM; in the experiment with NCI/ADR-RES ovarian, more than 25 µM; in the experiment with BT-549 breast, 24.4 µM; in the experiment on OVCAR-4 ovarian, 9.89 µM. The TGI was more than 25 µM with HCT-15 colon, more than 18.8 µM in the experiment on OVCAR-8 ovarian, 10.9 µM with RXF 393 renal and 10.4 µM in the experiment with HOP-92 NSCLC.
Consider `O=C(Nc1cn[nH]c1-c1nc2ccc(CN3CCOCC3)cc2[nH]1)NC1CC1`, for which the GI50 in the experiment with HS 578T breast is 0.118 µM and 0.125 µM; in the experiment with HL-60(TB) leukemia, 1.94 µM and 7.38 µM; in the experiment on NCI/ADR-RES ovarian, 12.1 µM and > 10 µM; in the experiment with BT-549 breast it was 0.385 µM and 0.963 µM; with OVCAR-4 ovarian it was 1.04 µM and > 10 µM; in the experiment with HCT-15 colon, 4.52 µM and > 10 µM. Also, the GI50 was 1.74 µM and 5.19 µM in the experiment with OVCAR-8 ovarian; 0.241 µM and 0.287 µM in the experiment with RXF 393 renal; 0.365 µM and 1.06 µM with HOP-92 NSCLC. Moreover, the TGI is 0.717 µM and 0.681 µM in the experiment on HS 578T breast; 5.15 µM and > 10 µM in the experiment with HL-60(TB) leukemia; 9.76 µM and > 10 µM with A549 NSCLC; more than 86.7 µM with NCI/ADR-RES ovarian; 2.13 µM and > 10 µM in the experiment on BT-549 breast; 12.4 µM and > 10 µM in the experiment on OVCAR-4 ovarian. For the same compound, the TGI with HCT-15 colon was 25.6 µM and > 10 µM; in the experiment with OVCAR-8 ovarian it was 9.63 µM and > 10 µM; in the experiment on RXF 393 renal, 1.79 µM and 2.17 µM; in the experiment with HOP-92 NSCLC it was 2.6 µM and 8.8 µM.
Turning to `O=c1oc2ccc(Cl)cc2c(=O)n1-c1ccc(F)cc1F`, the GI50 was 1.55 µM in the experiment with HS 578T breast; 1.88 µM in the experiment on HL-60(TB) leukemia; 2.08 µM with A549 NSCLC; 2.63 µM in the experiment with NCI/ADR-RES ovarian; 1.09 µM in the experiment with BT-549 breast; 1.11 µM in the experiment with OVCAR-4 ovarian. The GI50 is 2.32 µM with HCT-15 colon, 2.66 µM in the experiment with OVCAR-8 ovarian and 1.76 µM in the experiment on RXF 393 renal. The TGI in the experiment with HS 578T breast is 7.66 µM; with HL-60(TB) leukemia, 4.93 µM; in the experiment on A549 NSCLC it was more than 100 µM; with NCI/ADR-RES ovarian, 9.5 µM; in the experiment with BT-549 breast, 5.89 µM; in the experiment with OVCAR-4 ovarian, more than 100 µM. For the same compound, the TGI in the experiment with HCT-15 colon was 13.5 µM; in the experiment on OVCAR-8 ovarian, more than 100 µM; in the experiment on RXF 393 renal, 5.72 µM; in the experiment with HOP-92 NSCLC, 0.176 µM.
`Cc1nc2ccccc2c(/C=C/c2ccccc2)c1C(=O)/C=C/c1ccc(C(F)(F)F)cc1`: the GI50 with HL-60(TB) leukemia was 1.7 µM; in the experiment with A549 NSCLC, 2.03 µM; in the experiment with NCI/ADR-RES ovarian, 2.19 µM; in the experiment with BT-549 breast, 1.25 µM; in the experiment with OVCAR-4 ovarian it was 1.65 µM; with HCT-15 colon, 0.721 µM. In addition, the GI50 in the experiment with OVCAR-8 ovarian is 1.78 µM; in the experiment on RXF 393 renal it was 1.41 µM. Moreover, the TGI in the experiment with HL-60(TB) leukemia was 5.28 µM; in the experiment with A549 NSCLC, 4.84 µM; with NCI/ADR-RES ovarian, 7.19 µM; in the experiment on BT-549 breast it was 2.89 µM; in the experiment on OVCAR-4 ovarian, 3.2 µM; in the experiment on HCT-15 colon, 3.28 µM. The TGI with OVCAR-8 ovarian stood at 7.98 µM; with RXF 393 renal, 3.1 µM.
As to `COc1ccc2nc3c(cc2c1)C(=O)CC(c1ccccc1)C3` (stereo unspecified), the GI50 in the experiment on HS 578T breast was 0.882 µM; in the experiment with HL-60(TB) leukemia, 0.301 µM; with A549 NSCLC, 2.05 µM; with NCI/ADR-RES ovarian it was 0.359 µM; in the experiment on BT-549 breast, 1.36 µM; with OVCAR-4 ovarian, more than 100 µM. Moreover, the figures for the GI50 with HCT-15 colon and in the experiment with OVCAR-8 ovarian were 2.19 µM and 0.934 µM, respectively. The TGI in the experiment on HS 578T breast, in the experiment on A549 NSCLC, in the experiment with NCI/ADR-RES ovarian, in the experiment on BT-549 breast, in the experiment on OVCAR-4 ovarian and in the experiment with HCT-15 colon was more than 100 µM throughout. The TGI with OVCAR-8 ovarian and in the experiment with HOP-92 NSCLC was more than 100 µM throughout.
As to `Cc1ccc2[nH]c(C(=O)NN3C(=O)C(C)SC34CCC(C)CC4)c(-c3ccccc3)c2c1` (stereo unspecified), the GI50 with HS 578T breast is 41.8 µM; with A549 NSCLC it was 14.3 µM; with BT-549 breast, 19.4 µM; in the experiment with OVCAR-4 ovarian, 14.8 µM; in the experiment on HCT-15 colon it was 19.4 µM; in the experiment with OVCAR-8 ovarian, 21.2 µM. The figures for the GI50 in the experiment on RXF 393 renal and with HOP-92 NSCLC were 13.7 µM and 16.7 µM, respectively. For the same compound, the TGI was more than 100 µM in the experiment with HS 578T breast; 31.8 µM in the experiment on A549 NSCLC; 36.3 µM in the experiment with BT-549 breast; 34.7 µM in the experiment on OVCAR-4 ovarian; 53.1 µM in the experiment on HCT-15 colon; 53.2 µM in the experiment on OVCAR-8 ovarian. The TGI is 30.1 µM in the experiment with RXF 393 renal and 36 µM in the experiment on HOP-92 NSCLC.
